For one data set, the system named is Streptococcus. Conditions: cited from earlier work.
For another data set, the system named is Streptococcus C203. Conditions: cited from earlier work.
The subject of data set [1] is B.subtilis. The data set is described as follows: Growth of B.subtilis with ACR or AO premixed with NO donor. Format: cell-based.
The test system of a further data set is S. aureus. Conditions: cited from earlier work.
For data set [2], the system named is B.subtilis. Format: cell-based.
In the next data set the test system is S.aureus 4220 and Δnos. Format: cell-based. To be noted: 0.4 μg/ml CEF.
For data set [3], the system named is B.anthracis. Format: cell-based.
Data set [4] has as its system B.anthracis. Format: cell-based. To be noted: CuFL 20 μM.
The next data set deals with B. subtilis. Format: cell-based.
A further data set relates to B.subtilis 6051 and Δnos. Format: cell-based. To be noted: 25 μg/ml cefuroxime.

The structures appear in SMILES notation. Values joined by “and” are separate entries in the source; they are usually repeats but may differ in a detail not shown here. Equal entries are not always repeated.

Take `Nc1c2ccccc2nc2cc([N+](=O)[O-])ccc12` [3-nitro-9-aminoacridine]: the MIC (in general, the lowest concentration found to suppress growth) with Streptococcus was 1.5 μM and ~0.4 μg/ml.

On to `COc1cc2c(N)c3ccc([N+](=O)[O-])cc3[n+]([O-])c2cc1OC` [9-Amino-2,3-dimethoxy-6-nitroacridine 10-oxides], for which the MIC with Streptococcus C203 is 20 nM and ~6 ng/ml.

Consider `COc1cc(NS(C)(=O)=O)ccc1Nc1c2ccccc2nc2ccccc12` [AMSAcrine], for which, in the data set on HepG2 human hepatocytes (20 μM AMSAcrine, 100 μM MAHMA NONOate, viability 24 hours later), the “cell survival, AMSAcrine preincubated with exogenous NO versus AMSAcrine alone” value is 5.5 fold.

In the case of `CN(C)c1ccc2cc3ccc(N(C)C)cc3nc2c1` [AO, acridine orange], the “effect of NO treatment on antibacterial activity” value in the data set on B.subtilis [1] is “unaffected by NO treatment”. Further, the “antibacterial effect compared with ACR” value in the data set with B.subtilis [1] (10 μg/ml) is “significantly less than that of ACR”.

For the molecule `Cc1cc2cc3ccc(N(C)C)cc3[n+](C)c2cc1N.[Cl-]` [Flavicid], the MIC in the data set on S. aureus is 10 μM and ~2.6 μg/ml.

On to `COC(=O)[C@@H](N)CCCNC(=N)N[N+](=O)[O-]` [L-NAME, N G -nitro-L-arginine methyl ester], for which, in the data set with HepG2 human hepatocytes (4 mM L-NAME 8 hours prior to 20 μM AMSAcrine), the “sensitivity of hepatocytes to AMSAcrine after inhibition of cellular NOS” value is reported as “increased sensitization”.

Regarding `c1ccc(-c2ccccn2)nc1` [bipyridyl], the “effect of pretreatment on toxicity of ACR” value in the data set with B.subtilis [2] was “substantially decreased the toxicity of ACR”.

Take `CO/N=C(\C(=O)N[C@@H]1C(=O)N2C(C(=O)O)=C(COC(N)=O)CS[C@H]12)c1ccco1` [cefuroxime]: the “growth inhibition of nos-deficient versus wild type cells” value with S.aureus 4220 and Δnos was “much greater extent”. For the same molecule, the “killing of nos deficient versus wt cells” value with B.anthracis [3] is recorded as “much more efficiently than wt cells”; with B.subtilis 6051 and Δnos it was “much more efficiently than wt cells”. For the same molecule, the “NO production after antibiotic challenge” value in the data set on B.anthracis [4] is “greatly stimulated NO production”. For the same molecule, in the data set with B. subtilis, the “end products of NO oxidation (nitrite/nitrate) in growing culture after challenge” value was “increase”.
